{"source": "patent US10899815B2", "about": "“Compositions and methods of using islet neogenesis peptides and analogs thereof” (SHENZHEN HIGHTIDE BIOPHARMACEUTICAL, LTD., priority 2013, dated 2021)", "key": {"[1]": {"test": "Peptide stability in human plasma", "format": "in vitro ADME", "conditions": "100 μg/mL, 37° C., 0-120 min, FIG. 4", "protocol": "(§1) The stability of peptides was also tested in mouse and human plasma. Briefly, a certain amount of peptides and eucatropine powder (positive control) was accurately weighed. Test compounds were dissolved in 50% methanol-water solution and diluted to 20 mg/mL, and eucatropine was dissolved in dimethylsulfoxide (DMSO) and diluted to 10 mM, as a stock solution. Eucatropine stock solution was diluted to 0.2 mM with DMSO as a working solution. A stop reagent was prepared containing 200 ng/mL midazolam and tolbutamide in acetonitrile. A volume of 300 μL of stop solution was added to each well of a 96-well deep-well plate placed on ice beforehand.\n(§2) For the stability studies, peptides and eucatropine were spiked into plasma respectively, mixed well, and then 100 μL of each mixture solution was transferred into the pre-cooled stop reagent as 0 time point sample. The remaining mixtures were incubated in a 37° C. water bath with shaking at 100 rpm (n=2). The final incubation concentration was 1 μM for eucatropine and 100 μg/mL for all test compounds.\nAt desired time points, 100 μl, of incubation mixture was transferred to the stop reagent to precipitate proteins. […] The samples were analyzed by LC-MS/MS.\nSlope was calculated by plotting the natural logarithm of the percentage or remaining amount of test compounds and time, and T12 was calculated in accordance with the following formula. […]"}, "Pharmacokinetics in rat": {"test": "Pharmacokinetics in rat", "format": "in vivo, Sprague-Dawley (SD) rats", "conditions": "mouse and rat, 25 mg/kg", "protocol": "After 7 days acclimation, male Sprague-Dawley (SD) rats weighing 210-250 g, or male C57BL/6 mice, weighing 19-24 g, in good health were used in the study. Peptide 1, Peptide 12 and Peptide 16 were dissolved in sterile normal saline and then they were injected via subcutaneous (sc) bolus or intravenous (iv) bolus at the dose level of 25 mg/kg. Three animals in each group were used for blood collection at the time point of 5 min, 15 min, 30 min, 1 h, 2 h, 4 h, 6 h, 8 h and 24 h post-dose. Blood samples (approximately 400 μL) were collected and placed into tubes containing EDTA-K2 and centrifuged at 8000 rpm for 6 minutes at 4° C. to separate plasma front the samples. The resulting plasma was stored frozen at −80° C. until being analyzed. Plasma concentrations of peptides were determined using tandem mass spectrometry (LC-MS/MS) analysis. A non-compartmental module of WinNonlin® Professional 5.2 (Pharsight; St. Louis, Mo.), was used to calculate PK parameters. The abbreviation AUC(0-t) represents area under the curve front the time of dosing to the time of the last observation, the AUC(0-∞) represents area under the curve from the time of dosing to infinity, and the Cmax represents maximum concentration detected."}, "pancreatic islets": {"test_system": "pancreatic islets", "test": "Glucose-stimulated insulin secretion (GSIS) of isolated islets", "format": "cell-based, Sprague-Dawley (SD) rats", "conditions": "rat islets, 12.0 mM glucose, 10 μg/mL peptide (GLP-1 100 nM), 60 min, FIG. 8", "protocol": "The pancreases were procured from male adult Sprague-Dawley (SD) rats. After 7 days acclimation, the animals were sacrificed by cervical dislocation and the entire pancreas was removed and digested with collagenase to isolate islets. After digestion, islets were maintained at 37° C. in RPMI 1640 (Carlsbad, Calif., USA) pH 7.4, containing 10% (v/v) fetal calf serum, 1% penicillin/streptomycin, and 10 mM glucose in a humid atmosphere (5% CO2/95% O2), without the addition of any compound (control), or with the addition of 100 nM glucagon like peptide-1 (GLP-1); or 10 μg/mL Peptide 1, Peptide 12, or Peptide 16, as summarized in Table 4 below. Cultured islets were rinsed in Krebs-Ringer bicarbonate buffer (KRB), pH 7.4, previously gassed with a mixture CO2/O2 (5/95%), and pre-incubated in 1.0 ml KRB containing 0.5% (w/v) BSA and 1.5 mM glucose at 37° C. for 45 min. After this period, groups of 5 islets were incubated in 0.6 ml KRB with the addition of 1.5 or 12.0 mM glucose, with or without the addition of peptides for 60 min. At the end of the incubation period, aliquots of the medium were collected for insulin quantitation."}, "[2]": {"test": "Peptide stability in mouse plasma", "format": "in vitro ADME", "conditions": "100 μg/mL, 37° C., LC-MS/MS, FIG. 3 and FIG. 5", "protocol": "as §1, §2\nAt desired time points, 100 μl, of incubation mixture was transferred to the stop reagent to precipitate proteins. Samples were vortexed and centrifuged at RCF 5000-g for 10 minutes, and supernatant was transferred to a test plate. The samples were analyzed by LC-MS/MS.\nSlope was calculated by plotting the natural logarithm of the percentage or remaining amount of test compounds and time, and T12 was calculated in accordance with the following formula.\nFor stability in mouse plasma, the incubation time was 0, 5, 15, 30 and 60 min for Peptide 1 and eucatropine, 0, 15, 30, 60, 120, 240 and 480 min for Peptide 12, Peptide 16 and Peptide 29.\nIn another stability study in mouse plasma, the incubation time was 0, 30, 60 and 120 min for Peptide 2 and eucatropine; 0, 30, 60, 120, 240 and 960 min for Peptide 52 and Peptide 54."}}}
{"substance": "Ac-IGLHDPSHGTLPNGS-OH [Peptide 16, Ac-IGLHDPSHGTLPNGS-OH]", "values": [{"measurement": "stability in human plasma", "setting": "[1]", "result": "good stability in human plasma and were significantly more stable than INGAP-PP"}, {"measurement": "PK properties (AUC and Cmax) compared to INGAP-PP", "setting": "Pharmacokinetics in rat", "result": "marked improved PK properties"}, {"measurement": "glucose-stimulated insulin secretion versus islets without peptides", "setting": "pancreatic islets", "result": "released significantly more insulin"}, {"measurement": "stability in mouse plasma", "setting": "[2]", "result": "good stability in mouse plasma and were more stable than INGAP-PP"}]}
